“Also recorded” adds a separate entry of the source. Read-outs that look alike come from different tables or passages of the source.
Assays:
[1] = system: indoleamine-2,3-dioxygenase (IDO); details: cited from earlier work
[2] = cited from earlier work
[3] = target: T1, RIP1 (ATP-binding pocket) (Homo sapiens, UniProt Q13546); experiment: Fluorescent polarization (FP) binding assay
T1 construct: GST-RipK1 (1–375) was purified; made in house
T1 sequence (Q13546 1-375): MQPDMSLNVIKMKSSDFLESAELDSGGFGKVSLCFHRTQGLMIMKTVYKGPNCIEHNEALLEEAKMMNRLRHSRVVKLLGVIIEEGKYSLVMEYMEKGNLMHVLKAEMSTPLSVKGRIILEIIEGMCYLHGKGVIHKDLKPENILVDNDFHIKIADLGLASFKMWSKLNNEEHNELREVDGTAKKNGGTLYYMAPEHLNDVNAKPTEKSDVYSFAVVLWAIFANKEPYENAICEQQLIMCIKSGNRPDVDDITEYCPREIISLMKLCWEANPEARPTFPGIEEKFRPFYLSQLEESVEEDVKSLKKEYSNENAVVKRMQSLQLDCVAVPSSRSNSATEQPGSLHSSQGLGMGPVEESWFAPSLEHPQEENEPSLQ
Experimental: A FP-based binding assay was developed to quantitate interaction of novel test compounds at the ATP-binding pocket of RIP1, by competition with a fluorescently labeled ATP-competitive ligand, as previously described.[18] In brief, GST-RipK1 (1–375) was purified and was used at a final assay concentration of 10 nM.

RIP1 kinase = target: T2, RIP1 kinase (Homo sapiens, UniProt Q13546); experiment: ADP-Glo kinase assay; type: biochemical
T2 construct: 10 nM GST-RIPK1 (1–375) and 50 μM ATP; made in house
Experimental: Compound potency against RIP1 kinase activity was determined using an ADP-Glo luminescence assay, which measures the conversion of ATP to ADP as previously described.[18] In brief, the primary reaction consisted of 10 nM GST-RIPK1 (1–375) and 50 μM ATP in 50 mM HEPES pH 7.5, 50 mM NaCl, 30 mM MgCl2, 1 mM DTT, 0.5 mg/ml BSA, and 0.02% CHAPS. Five microliter of enzyme and 5 μl of ATP were added to the plate at twice the final assay concentration and incubated at room temperature for 4 h. The luminescence was measured on a plate reader. Test compound inhibition was expressed as percent inhibition of internal assay controls.

C57BL/6 mice = experiment: TNF+zVAD-induced shock model (temperature loss); type: in vivo, mouse; details: 15 min before TNF+zVAD
Experimental: Temperature was monitored over the course of 3 h by rectal probe.

recombinant human IDO = target: T3, recombinant human IDO (Homo sapiens, UniProt P14902); experiment: IDO enzymatic assay; type: biochemical; details: in vitro enzymatic assay
T3 construct: purchased R&D Systems (Minneapolis, MN, USA)

[4] = system: human monocytic U937 cells; experiment: TNF+zVAD-induced necroptosis, CellTiter-Glo; type: cell-based; details: U-937, U937, overnight, read-out: IC50 blocking necroptosis
Experimental: (§1) Mouse fibrosarcoma L929 cells (ATCC# CCL-1) and human monocytic U937 cells (ATCC# CRL-1593.2) were cultured in RPMI media supplemented with 10% heat-inactivated FBS, 100 U/ml penicillin and […] streptomycin. BMDM were prepared from C57BL/6 mice by differentiation with 10 ng/ml M-CSF (R&D Systems) for 7 days and cultured in DMEM medium supplemented with 10% heat-inactivated FBS, 100 U/ml penicillin, 100 μg/ml streptomycin and 0.25 μg/ml amphotericin. Primary human neutrophils were isolated from human blood following the standard method comprised of sequential sedimentation in dextran, density centrifugation in Ficoll–Hypaque and lysis of contaminating red blood cells.
(§2) […] To evaluate the effect of RIP1 inhibitors, cells were pretreated with compound (dose–response) for 30 min. Induced cell death was evaluated 19–21 h later by measuring cellular ATP levels using CellTiter-Glo Luminescent Cell Viability assay (Promega, Fitchburg, WI, USA). To induce necroptosis in neutrophils, freshly isolated human neutrophils were stimulated with TNF (10 ng/ml), QVD-Oph (50 μM) and SMAC mimetic (100 nM). Induced cell death was evaluated as above.

[5] = system: mouse fibrosarcoma L929 cells; experiment: TNF+zVAD-induced necroptosis, CellTiter-Glo; type: cell-based; details: overnight, read-out: IC50 blocking necroptosis
Experimental: as §1, §2

[6] = Pharmacokinetic profile after i.p. administration; type: in vivo, C57BL/6 mice; details: 10 mg/kg i.p., mice
Experimental: Briefly, pharmacokinetic studies were conducted using n=3 animals per group for each compound. […] Blood samples were obtained at various time points following intraperitoneal injection and diluted 1 : 1 with water prior to storage at −80 °C.
Prior to bioanalysis, samples were thawed and each analyte was isolated using a method based on protein precipitation. The resulting supernatant was injected into an LC/MS/MS system optimized for detection of the compound of interest. Data were reported as quantitative drug concentrations as determined by standard calibration curve analysis. Using these optimized conditions, the typical lower limit of quantitation achieved was 1.00 ng/ml for both compounds.

T3 sequence (P14902 whole entry): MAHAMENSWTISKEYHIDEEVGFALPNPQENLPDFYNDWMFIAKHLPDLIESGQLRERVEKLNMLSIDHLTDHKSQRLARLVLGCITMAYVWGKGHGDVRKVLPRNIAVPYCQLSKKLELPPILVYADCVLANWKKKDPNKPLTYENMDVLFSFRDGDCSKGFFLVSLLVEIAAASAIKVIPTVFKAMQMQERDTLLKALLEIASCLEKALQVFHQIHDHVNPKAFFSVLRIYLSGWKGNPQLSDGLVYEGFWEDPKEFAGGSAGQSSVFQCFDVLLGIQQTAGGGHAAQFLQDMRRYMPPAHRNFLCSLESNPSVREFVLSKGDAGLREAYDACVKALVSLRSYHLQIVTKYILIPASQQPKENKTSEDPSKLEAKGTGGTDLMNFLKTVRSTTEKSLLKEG

CN1C(=O)NC(Cc2c[nH]c3c(Cl)cccc23)C1=O (stereo not shown) [Nec-1s, 7-Cl-O-Nec-1]
IDO activity ([1]; ref 24): lacks IDO activity
pharmacokinetic properties ([2]; ref 24): improved pharmacokinetic properties

CC(C)(C)C(=O)N1N=CC[C@@H]1c1ccccc1 [GSK′962]
activity in the FP binding assay [3]: no activity
activity in blocking RIP1 kinase activity (RIP1 kinase): inactive
protection from TNF+zVAD-induced temperature loss (C57BL/6 mice; 20 mg/kg i.p.): no effect

CN1C(=O)C(Cc2c[nH]c3ccccc23)NC1=S (stereo not shown) [Nec-1, Necrostatin-1, reference compound]
IC50 [3]: 2000 nM
drop off in potency relative to GSK′963 in the FP binding assay [3]: ~ 70 fold
IC50 (RIP1 kinase; read-out: IC50 blocking RIP1 kinase activity): 1000 nM
effect on IDO activity (recombinant human IDO): no effect
IC50 [4]: 2000 nM
IC50 [5]: 1000 nM
exposure compared with GSK′963 [6]: ~ 10 fold
protection from TNF+zVAD-induced temperature loss (C57BL/6 mice; 0.2 mg/kg i.p.): no effect
protection from TNF+zVAD-induced temperature loss (C57BL/6 mice; 2 mg/kg i.p.): minimal level of protection; also recorded: no significant protection
IDO inhibition ([1]; ref 22): known to inhibit
IDO inhibition ([1]; ref 25): potent inhibitor
in vivo half-life ([2]; ref 23): short
metabolic stability ([2]; ref 23): quite limited

CC1=CC(=O)c2ccccc2C1=O [menadione, reference compound]
effect on IDO activity (recombinant human IDO): inhibited enzyme activity with the expected potency

Source: paper PMC4979471 (Cell Death Discovery, 2015)
